Measurements as given in ChEMBL document CHEMBL2413076, “Synthesis and biological evaluation of ursolic acid-triazolyl derivatives as potential anti-cancer agents” (Eur J Med Chem, 2013).

Columns and labels:
THP-1 [1] = test: Growth inhibition of human THP1 cells after 48 hrs by sulforhodamine-B assay; type: functional, cell-based; settings: THP-1, 48 h
HCT-116 [2] = test: Growth inhibition of human HCT116 cells assessed as dead cells at 50 uM after 48 hrs by sulforhodamine-B assay relative to control; type: functional; settings: HCT-116, 48 h, read-out: GI
A549 [3] = test: Growth inhibition of human A549 cells assessed as dead cells at 50 uM after 48 hrs by sulforhodamine-B assay relative to control; type: functional; settings: A549, 48 h, read-out: GI
MCF7 [4] = test: Growth inhibition of human MCF7 cells after 48 hrs by sulforhodamine-B assay; type: functional, cell-based; settings: MCF7, 48 h
A549 [5] = test: Growth inhibition of human A549 cells assessed as dead cells at 10 uM after 48 hrs by sulforhodamine-B assay relative to control; type: functional; settings: A549, 48 h, read-out: GI
A549 [6] = test: Growth inhibition of human A549 cells after 48 hrs by sulforhodamine-B assay; type: functional, cell-based; settings: A549, 48 h
HCT-116 [7] = test: Growth inhibition of human HCT116 cells after 48 hrs by sulforhodamine-B assay; type: functional, cell-based; settings: HCT-116, 48 h
[8] = Growth inhibition of human FR2 cells assessed as dead cells at 50 uM after 48 hrs by sulforhodamine-B assay relative to control; type: cell-based; settings: read-out: GI
HCT-116 [9] = test: Growth inhibition of human HCT116 cells assessed as dead cells at 10 uM after 48 hrs by sulforhodamine-B assay relative to control; type: functional; settings: HCT-116, 48 h, read-out: GI
[10] = Growth inhibition of human FR2 cells after 48 hrs by sulforhodamine-B assay; type: cell-based; settings: FR2, 48 h
[11] = Growth inhibition of human FR2 cells assessed as dead cells at 10 uM after 48 hrs by sulforhodamine-B assay relative to control; type: cell-based; settings: read-out: GI
THP-1 [12] = test: Growth inhibition of human THP1 cells assessed as dead cells at 50 uM after 48 hrs by sulforhodamine-B assay relative to control; type: functional; settings: THP-1, 48 h, read-out: GI
MCF7 [13] = test: Growth inhibition of human MCF7 cells assessed as dead cells at 10 uM after 48 hrs by sulforhodamine-B assay relative to control; type: functional; settings: MCF7, 48 h, read-out: GI
THP-1 [14] = test: Growth inhibition of human THP1 cells assessed as dead cells at 10 uM after 48 hrs by sulforhodamine-B assay relative to control; type: functional; settings: THP-1, 48 h, read-out: GI
MCF7 [15] = test: Growth inhibition of human MCF7 cells assessed as dead cells at 50 uM after 48 hrs by sulforhodamine-B assay relative to control; type: functional; settings: MCF7, 48 h, read-out: GI

| Structure (SMILES) | IC50 (THP-1 [1]) [µM] | inhibition of growth at 50 µM (HCT-116 [2]) [%] | inhibition of growth at 50 µM (A549 [3]) [%] | IC50 (MCF7 [4]) [µM] | inhibition of growth at 10 µM (A549 [5]) [%] | IC50 (A549 [6]) [µM] | IC50 (HCT-116 [7]) [µM] | inhibition at 48 h, 50 µM [8] [%] | inhibition of growth at 10 µM (HCT-116 [9]) [%] | IC50 [10] [µM] | inhibition at 48 h, 10 µM [11] [%] | inhibition of growth at 50 µM (THP-1 [12]) [%] | inhibition of growth at 10 µM (MCF7 [13]) [%] | inhibition of growth at 10 µM (THP-1 [14]) [%] | inhibition of growth at 50 µM (MCF7 [15]) [%] |
| --- | --- | --- | --- | --- | --- | --- | --- | --- | --- | --- | --- | --- | --- | --- | --- |
| C[C@H]1[C@H](C)CC[C@]2(C(=O)OCc3cn(-c4ccccc4I)nn3)CC[C@]3(C)C(=CC[C@@H]4[C@@]5(C)CCC(=O)C(C)(C)[C@@H]5CC[C@]43C)[C@H]12 | 9.4 | 78 | 67 | 13 | 43 | 19 | 15 | 56 | 44 | 35 | 36 | 79 | 54 | 56 | 76 |
| C[C@H]1[C@H](C)CC[C@]2(C(=O)OCc3cn(-c4ccc(CC#N)cc4)nn3)CC[C@]3(C)C(=CC[C@@H]4[C@@]5(C)CCC(=O)C(C)(C)[C@@H]5CC[C@]43C)[C@H]12 | 37 | 67 | 26 | 79 | 13 | > 100 | 19 | 46 | 44 | 46 | 14 | 55 | 17 | 32 | 34 |
| C[C@H]1[C@H](C)CC[C@]2(C(=O)OCc3cn(-c4ccccc4Br)nn3)CC[C@]3(C)C(=CC[C@@H]4[C@@]5(C)CCC(=O)C(C)(C)[C@@H]5CC[C@]43C)[C@H]12 | < 0.1 | 99 | 99 | < 0.1 | 85 | 2.9 | 15 | 99 | 41 | 69 | 2 | 99 | 80 | 92 | 99 |
| Cc1ccc(-n2cc(COC(=O)[C@]34CC[C@@H](C)[C@H](C)[C@H]3C3=CC[C@@H]5[C@@]6(C)CCC(=O)C(C)(C)[C@@H]6CC[C@@]5(C)[C@]3(C)CC4)nn2)cc1C | 0.9 | 99 | 93 | 5.5 | 74 | 0.5 | < 0.1 | 85 | 91 | 10 | 68 | 94 | 69 | 82 | 99 |
| C[C@H]1[C@H](C)CC[C@]2(C(=O)OCc3cn(-c4cccc5ccccc45)nn3)CC[C@]3(C)C(=CC[C@@H]4[C@@]5(C)CCC(=O)C(C)(C)[C@@H]5CC[C@]43C)[C@H]12 |  | 76 | 50 |  | 27 |  |  |  | 2 |  |  | 75 | 40 | 47 | 80 |
| C[C@H]1[C@H](C)CC[C@]2(C(=O)OCc3cn(-c4ccccc4)nn3)CC[C@]3(C)C(=CC[C@@H]4[C@@]5(C)CCC(=O)C(C)(C)[C@@H]5CC[C@]43C)[C@H]12 | 11 | 78 | 64 | 39 | 43 | 24 | 14 | 45 | 44 | 82 | 12 | 83 | 28 | 54 | 51 |
| C#CCOC(=O)[C@]12CC[C@@H](C)[C@H](C)[C@H]1C1=CC[C@@H]3[C@@]4(C)CCC(=O)C(C)(C)[C@@H]4CC[C@@]3(C)[C@]1(C)CC2 | 13 | 96 | 78 | 56 | 50 | 15 | 2.3 | 86 | 74 | 24 | 33 | 88 | 22 | 42 | 42 |
| C[C@H]1[C@H](C)CC[C@]2(C(=O)OCc3cn(-c4ccccc4C(F)(F)F)nn3)CC[C@]3(C)C(=CC[C@@H]4[C@@]5(C)CCC(=O)C(C)(C)[C@@H]5CC[C@]43C)[C@H]12 |  | 23 | 46 |  |  |  |  |  |  |  |  | 73 |  |  | 4 |
| C[C@H]1[C@H](C)CC[C@]2(C(=O)OCc3cn(-c4ccccc4[N+](=O)[O-])nn3)CC[C@]3(C)C(=CC[C@@H]4[C@@]5(C)CCC(=O)C(C)(C)[C@@H]5CC[C@]43C)[C@H]12 | 48 | 65 | 39 | > 50 | 3 | > 50 | 14 | 12 | 45 | > 50 | 9 | 54 | 4 | 24 | 42 |
| C[C@H]1[C@H](C)CC[C@]2(C(=O)OCc3cn(-c4ccccc4Cl)nn3)CC[C@]3(C)C(=CC[C@@H]4[C@@]5(C)CCC(=O)C(C)(C)[C@@H]5CC[C@]43C)[C@H]12 | < 0.1 | 93 | 91 | < 0.1 | 77 | 0.15 | 9.1 | 35 | 54 | > 50 | 9 | 96 | 81 | 80 | 95 |
| C[C@H]1[C@H](C)CC[C@]2(C(=O)OCc3cn(-c4ccc(Br)cc4)nn3)CC[C@]3(C)C(=CC[C@@H]4[C@@]5(C)CCC(=O)C(C)(C)[C@@H]5CC[C@]43C)[C@H]12 | 1 | 92 | 63 | 15 | 45 | 18 | 1.7 | 93 | 80 | 19 | 58 | 95 | 44 | 74 | 78 |
| C[C@H]1[C@H](C)CC[C@]2(C(=O)OCc3cn(-c4ccc(I)cc4)nn3)CC[C@]3(C)C(=CC[C@@H]4[C@@]5(C)CCC(=O)C(C)(C)[C@@H]5CC[C@]43C)[C@H]12 |  | 8 | 2 |  |  |  |  |  |  |  |  | 1 |  |  | 82 |
| C[C@H]1[C@H](C)CC[C@]2(C(=O)OCc3cn(-c4ccc(C(F)(F)F)cc4)nn3)CC[C@]3(C)C(=CC[C@@H]4[C@@]5(C)CCC(=O)C(C)(C)[C@@H]5CC[C@]43C)[C@H]12 |  | 16 | 30 |  |  |  |  |  |  |  |  | 27 |  |  | 3 |
| C[C@H]1[C@H](C)CC[C@]2(C(=O)OCc3cn(-c4ccc(Cl)cc4)nn3)CC[C@]3(C)C(=CC[C@@H]4[C@@]5(C)CCC(=O)C(C)(C)[C@@H]5CC[C@]43C)[C@H]12 |  | 49 | 26 |  |  |  |  |  |  |  |  | 9 |  |  | 52 |
| C[C@H]1[C@H](C)CC[C@]2(C(=O)OCc3cn(-c4cccc(Br)c4)nn3)CC[C@]3(C)C(=CC[C@@H]4[C@@]5(C)CCC(=O)C(C)(C)[C@@H]5CC[C@]43C)[C@H]12 |  | 10 | 16 |  |  |  |  |  |  |  |  | 32 |  |  | 3 |
| C[C@H]1[C@H](C)CC[C@]2(C(=O)OCc3cn(-c4ccc(F)cc4)nn3)CC[C@]3(C)C(=CC[C@@H]4[C@@]5(C)CCC(=O)C(C)(C)[C@@H]5CC[C@]43C)[C@H]12 |  | 3 | 3 |  |  |  |  |  |  |  |  | 2 |  |  | 4 |
| C[C@H]1[C@H](C)CC[C@]2(C(=O)OCc3cn(-c4ccccc4F)nn3)CC[C@]3(C)C(=CC[C@@H]4[C@@]5(C)CCC(=O)C(C)(C)[C@@H]5CC[C@]43C)[C@H]12 |  | 12 | 18 |  |  |  |  |  |  |  |  | 49 |  |  | 15 |
